Assay results as given in patent publication US12419811B2, “Hydrogel drug delivery composition” (Board of Regents of the University of Nebraska, priority 2019, dated 2025).

Tests used:
[1] = In vitro release of BIO from PF127 hydrogel (membrane-less); type: physicochemical; details: 37° C.
Description: After gelation, 2 mL of phosphate-buffered saline (PBS; pH 7.4) containing 0.5% Tween 80 pre-equilibrated at 37° C. were gently laid over the surface of the hydrogels and incubated in a water bath at 37° C. with continuous gentle shaking. […] The release study was performed in triplicate.

[2] = tested on: experimental periodontitis; test: BIO hydrogels in rat experimental periodontitis, micro-CT of periodontal bone and femur; type: in vivo, Sprague Dawley rats; details: 100 μM BIO, week 4
Description: Ten-month-old female Sprague Dawley rats (retired breeders, Envigo) were acclimated for one week prior to experiment. […] Using silk ligatures, the experimental periodontitis was induced as described previously^[32, 38]. Briefly, rats were first anesthetized in an isoflurane chamber with a 1% to 4% isoflurane in 100% O2. After taking the body weight, the rats were positioned with a nose cone supplied with 0.5% to 2% isoflurane and 100% O2 to maintain anesthesia during the entire procedure. To induce experimental periodontitis, a 4-0 silk ligature was gently tightened subgingivally around the maxillary 2nd molars (M2). Following ligature placement, different treatments (10 μL) were locally delivered between the maxillary 1st molar (M1) and 2nd molar (M2) once each week for 3 weeks. After one week, the ligatures were removed. All animals were euthanized at week 4. The entire palate including all three molars was dissected and fixed in 10% formalin prior to micro-CT and histological analyses. […] All palate samples (including all three molars) were evaluated for alveolar bone quality using a high-resolution X-ray microtomography system (Skyscan 1172, Bruker, Kontich, Belgium), references to previous studies^[32, 38]. […] To evaluate bone erosion, the distance from cementoenamel junction (CEJ) to alveolar bone crest (ABC) was determined using Skyscan Data viewer software. […] The ROI was determined from the distopalatal of M1 to the mesiopalatal of M2 (length), 130 slices below the CEJ of M1 and M2 (height), and from the palatal side to the buccal side of M1 and M2 (width). […] For bone quality analysis, a consistent polygonal ROI of trabecular bone at the distal femur was selected and the ROI was determined from 20 slices to 100 slices proximal to the growth plate. The bone histomorphometric parameters, including mean bone volume (BV), bone volume/tissue volume (BV/TV), trabecular thickness (Tb.Th) and bone mineral density (BMD) were determined using CT-Analyzer software.

[3] = tested on: experimental periodontitis; test: BIO hydrogels in rat experimental periodontitis, H&E histology scores; type: in vivo, Sprague Dawley rats
Description: (§1) Ten-month-old female Sprague Dawley rats (retired breeders, Envigo) were acclimated for one week prior to experiment. […] Using silk ligatures, the experimental periodontitis was induced as described previously^[32, 38]. Briefly, rats were first anesthetized in an isoflurane chamber with a 1% to 4% isoflurane in 100% O2. After taking the body weight, the rats were positioned with a nose cone supplied with 0.5% to 2% isoflurane and 100% O2 to maintain anesthesia during the entire procedure. To induce experimental periodontitis, a 4-0 silk ligature was gently tightened subgingivally around the maxillary 2nd molars (M2). […] To probe the presence of inflammatory cells between M1 and M2 and osteoclasts in the alveolar crest, a pathologist (SML) blind to experimental group assignment, evaluated the slides semi-quantitatively using an Olympus BX53 microscope. A semi-quantitative scoring system^[32, 40, 41] was used to evaluate inflammatory cells, where 0 is negative, 1 is less than 30% of the affected tissues, 2 is some inflammatory cells (30-60%), and 3 is many inflammatory cells (>60%). Similarly, osteoclasts on the alveolar crest were evaluated using a semi-quantitative scoring system^[32,42] where 0 is negative, 1 is a few osteoclasts lining less than 5% of alveolar bone surface, 2 is some osteoclasts (5-25%), and 3 is many osteoclasts (25-50%). […]

β-catenin = test: BIO hydrogels in rat experimental periodontitis, IHC staining of β-catenin; type: in vivo, Sprague Dawley rats; details: between M1 and M2
Description: as §1

[4] = 10 μL local once each week for 3 weeks

For O=C1Nc2cc(Br)ccc2/C1=C1/Nc2ccccc2/C1=N\O [BIO, 6-bromoindirubin-3′-oxime], the “burst release of BIO” value ([1]; from 20% w/v PF127 hydrogel, first 3 hr) was about 50%, the “total release of BIO” value ([1]; from 20% w/v PF127 hydrogel, in 24 hr) was about 99% and the BIO release profile ([1]; from 25% w/v PF127 hydrogel) was “burst release in the first 12 hr followed by a sustained release in the next 48 hr”. The “duration of sustained BIO release” value ([1]; from 30% w/v PF127 hydrogel) was “over 48 hr”, the “linear distance CEJ to ABC (alveolar bone loss)” value ([2]; 10 μL local between M1 and M2 once each week for 3 weeks) was “did not show a statistically significant difference comparing to the saline-treated group” and the “Bone volume (BV) of alveolar bone” value [2, 4] was “No statistically significant difference”. For the same compound, the “trabecular thickness (Tb.Th) of alveolar bone” value [2, 4] was “No statistically significant difference”, the “osteoclast score (semi-quantitative, 0-3)” value ([3]; alveolar crest, after three weeks of treatment) was “significantly lower than the saline Con-group” and the “inflammatory cell score (semi-quantitative, 0-3)” value ([3]; between M1 and M2, after three weeks of treatment) was “statistically significant difference (P<0.01) only when compared to the saline Con-group”. The “β-Catenin positive cell score (0-3)” value (β-catenin) was “not significantly different (P>0.05) from the saline Con-, PF127, and healthy Con+ group”.
